In general, IC50 refers to the concentration that gives 50% inhibition. Read a low IC50 as greater potency. One may read the melting point as the temperature, or range, at which the solid turns liquid.

Each structure is given as a SMILES string.

Consider eight molecules from publication PMC9930359, “Cytotoxicity of the methanol extracts and compounds of Brucea antidysenterica (Simaroubaceae) towards multifactorial drug-resistant human cancer cell lines” (BMC Complementary Medicine and Therapies, 2023).

One data set concerns HCT116 p53+/+ cells. In words: Resazurin reduction assay (RRA), cytotoxicity. In kind it is cell-based. The settings on record: Homo sapiens, HCT-116, 72 h.
The test system of the next data set is HepG2 cells. Nature of the data set: Resazurin reduction assay (RRA), cytotoxicity. In kind it is cell-based. The settings on record: Homo sapiens, HepG2, 72 h. (In general: The colour change of resazurin is a common sign of viable cells or microbes.)
A further data set has as its system AML12 hepatocytes. Nature of the data set: Resazurin reduction assay (RRA), cytotoxicity on normal hepatocytes. In kind it is cell-based. The settings on record: for IC50: Mus musculus, AML12 normal hepatocytes, 72 h; for Selectivity index (S.I.): ratio of IC50 in AML12 vs IC50 in HepG2 cells.
For a further data set, the system named is MDA-MB-231-BCRP cells. Nature of the data set: Resazurin reduction assay (RRA), cytotoxicity. The settings on record: for IC50: Homo sapiens, MDA-MB-231/BCRP, 72 h; for Degree of resistance (D.R.): ratio of IC50 MDA-MB-231-BCRP vs MDA-MB-231-pcDNA.
A further data set concerns CEM/ADR5000 cells. In words: Resazurin reduction assay (RRA), cytotoxicity. In kind it is cell-based, human. The settings on record: for IC50: Homo sapiens, CEM/ADR5000, 72 h; for Degree of resistance (D.R.): ratio of IC50 CEM/ADR5000 vs CCRF-CEM.
The subject of a further data set is CCRF-CEM leukemia cells. Nature of the data set: Resazurin reduction assay (RRA), cytotoxicity. In kind it is cell-based. The conditions noted are these: Homo sapiens, 72 h.
For a further data set, the system named is HCT116 p53−/− cells. In words: Resazurin reduction assay (RRA), cytotoxicity. In kind it is cell-based, human. The settings on record: for IC50: Homo sapiens, HCT-116, HCT116 p53−/−, 72 h; for Degree of resistance (D.R.): ratio of IC50 HCT116 p53−/− vs HCT116 p53+/+.
A further data set has as its system U87MG.ΔEGFR cells. In words: Resazurin reduction assay (RRA), cytotoxicity. In kind it is cell-based, human. The settings on record: for IC50: Homo sapiens, U87MG.ΔEGFR, 72 h; for Degree of resistance (D.R.): ratio of IC50 U87.MGΔEGFR vs U87.MG.
The next data set deals with MDA-MB-231-pcDNA cells. Nature of the data set: Resazurin reduction assay (RRA), cytotoxicity. In kind it is cell-based. The conditions noted are these: Homo sapiens, 72 h.
The test system of another data set is U87MG cells. Nature of the data set: Resazurin reduction assay (RRA), cytotoxicity. In kind it is cell-based. The settings on record: Homo sapiens, U-87 MG, 72 h.
Data set [1] deals with CCRF-CEM cells. Nature of the data set: Reactive oxygen species (ROS), H2DCFH-DA staining, flow cytometry. In kind it is cell-based, human. The conditions noted are these: 50 µM, 24 h. The protocol:
(§1) The modification of the MMP as well as the ROS levels after the application of BAL, and flavonolignan 2 at ¼ IC50, ½ IC50, IC50, and 2 × IC50 to CCRF-CEM cells (1 × 10^6) was performed by flow cytometry. DMSO was used as solvent control while valinomycin served as a positive control. The cells were incubated for 24 h and further stained for 30 min with JC-1 [45] and measured (1 × 10^4 cells) in an LSR-Fortessa FACS analyzer (Becton–Dickinson). For ROS determination, CCEF-CEM cells were similarly treated BAL, the flavonolignan 2, hydrogen peroxide (H2O2; positive control), DMSO (solvent control) as in the MMP analysis, then incubated for 24 h. They were further stained with H2DCFH-DA and measured (1 × 10^4 cells) in an LSR-Fortessa FACS analyzer.

Data set [2] relates to CCRF-CEM cells. Nature of the data set: Mitochondrial membrane potential (MMP), JC-1 staining, flow cytometry. In kind it is cell-based, human. The conditions noted are these: 10 µM, 24 h. The protocol: as §1
In general terms: A flow cytometer gives signals particle by particle.

Experimental for AML12 hepatocytes: (§2) The RPMI-1640 medium was used for the culture of CCRF-CEM and CEM/ADR5000 cells whilst DMEM medium was used for carcinoma cells. The culture media were supplemented (complete medium) with 10% fetal bovine serum and 1% penicillin/streptomycin (Invitrogen, Eggenstein, Germany). […] To maintain the resistance phenotype of the resistant carcinoma cell lines such as MDA-MB-231/BCRP and HCT116 p53^−/−, and U87MG.ΔEGFR cells, the complete DMEM medium containing geneticin at 800 ng/ml and 400 µg/ml, respectively were used [41, 42].
(§3) Cells were cultured in a standard condition consisted of a humidified 5% CO2 atmosphere and an incubation temperature of 37 °C. The tested concentration ranges were 0.63—80 µg/mL for the botanicals and 0.78—100 µM for phytochemicals. The incubation time of the treated cells was 72 h, and the fluorescence was measured with Infinite M2000 Pro™ plate reader (Tecan, Crailsheim, Germany). The wavelengths used were 544 nm for the excitation and 590 nm for the emission. […] The degree of resistance (D.R.) was set as the ratio of the IC50 values of samples in the resistant cell line vs that of corresponding sensitive cell line. The selectivity index (S.I.) was the ratio of the IC50 value of AML12 hepatocytes vs. that of HepG2 cells [13, 48].
Text for CCRF-CEM leukemia cells: (§4) In this work, 9 cancer cell lines with various drug resistance patterns as well as AML12 hepatocytes as normal control cell line were used. […] The AML12 hepatocytes were used for the comparison of the activities of the samples with HepG2 [40]. […] The RPMI-1640 medium was used for the culture of CCRF-CEM and CEM/ADR5000 cells whilst DMEM medium was used for carcinoma cells. The culture media were supplemented (complete medium) with 10% fetal bovine serum and 1% penicillin/streptomycin (Invitrogen, Eggenstein, Germany). […] To maintain the resistance phenotype of the resistant carcinoma cell lines such as MDA-MB-231/BCRP and HCT116 p53^−/−, and U87MG.ΔEGFR cells, the complete DMEM medium containing geneticin at 800 ng/ml and 400 µg/ml, respectively were used [41, 42].
as §3
Experimental for CEM/ADR5000 cells: as §2, §3
Text for HCT116 p53+/+ cells: as §4, §3
Experimental for HCT116 p53−/− cells: as §2, §3
Text for HepG2 cells: as §4, §3
Experimental for MDA-MB-231-BCRP cells: as §2, §3
Text for MDA-MB-231-pcDNA cells: as §4, §3
Text for U87MG cells: as §4, §3
Experimental for U87MG.ΔEGFR cells: as §2, §3

For `CC(C)=CC(=O)c1c[nH]c2ccccc12` [Compound 1, 3, (3-(3-methyl-1-oxo-2-butenyl))1H indole], the concentration for half-maximal inhibition (IC50) is 23.9 ± 2.32 µM in the data set with HCT116 p53+/+ cells; 39.9 ± 2.84 µM with HepG2 cells; greater than 100 µM in the data set with AML12 hepatocytes; 47.5 ± 2.75 µM in the data set on MDA-MB-231-BCRP cells; 32 ± 2.05 µM in the data set on CEM/ADR5000 cells; 19.1 ± 1.56 µM with CCRF-CEM leukemia cells. For the same molecule, the IC50 with HCT116 p53−/− cells turned out to be 36.4 ± 3.04 µM; in the data set with U87MG.ΔEGFR cells, 36.3 ± 3.01 µM; in the data set on MDA-MB-231-pcDNA cells, 13.4 ± 0.93 µM; in the data set with U87MG cells, 24.2 ± 1.16 µM. In the data set on AML12 hepatocytes, the “Selectivity index (S.I.)” value is reported as greater than 2.50. Also, the “Degree of resistance (D.R.)” value in the data set with MDA-MB-231-BCRP cells was found to be 3.54; in the data set with CEM/ADR5000 cells, 1.68; with HCT116 p53−/− cells it was 1.53; in the data set with U87MG.ΔEGFR cells, 1.50.
On to `C[C@@H](O)C1CCC2C3CC=C4C[C@@H](O[C@@H]5OC[C@H](O)[C@H](O)[C@H]5O)CC[C@]4(C)C3CC[C@@]21C` (stereo partly drawn) [Compound 3, (20R)-O-(3)-α-L-arabinopyranosyl-pregn-5-en-3β,20-diol], for which the melting point is 258 to 260 °C. Further, the half-maximal inhibitory concentration (IC50) in the data set on HCT116 p53+/+ cells was greater than 100 µM. Further, the half-inhibitory concentration (IC50) in the data set on HepG2 cells is 85.2 ± 5.7 µM. In addition, in the data set on AML12 hepatocytes, the IC50 is greater than 100 µM and the “Selectivity index (S.I.)” value was greater than 1.17. In the data set with MDA-MB-231-BCRP cells, this molecule showed a half-maximal inhibitory concentration (IC50) greater than 100 µM. Also, in the data set on CEM/ADR5000 cells, the IC50 was 73.9 ± 5.32 µM and the “Degree of resistance (D.R.)” value stood at 2.60. For the same molecule, in the data set on CCRF-CEM leukemia cells, the IC50 was found to be 28.4 ± 1.76 µM. In the data set on HCT116 p53−/− cells, 50.5 ± 3.81 µM corresponded to half-maximal inhibition (IC50) and the “Degree of resistance (D.R.)” value is less than 0.50. In the data set with U87MG.ΔEGFR cells, this molecule gave an IC50 greater than 100 µM. In the data set with MDA-MB-231-pcDNA cells, the IC50 is greater than 100 µM. The IC50 in the data set with U87MG cells was greater than 100 µM.
For `C[C@@H](O)C1CCC2C3CC=C4C[C@@H](O[C@@H]5OC[C@H](O)[C@H](O)[C@H]5O[C@@H]5O[C@H](CO)[C@@H](O)[C@H](O)[C@H]5O)CC[C@]4(C)C3CC[C@@]21C` (stereo partly drawn) [Compound 4, (20R)-O-(3)-β-D-glucopyranosyl(1 → 2)-α-L-arabinopyranosyl-pregn-5-en-3β,20-diol], the melting point was in the range of 258 to 260 °C. The IC50 with HCT116 p53+/+ cells is greater than 100 µM. In addition, the IC50 in the data set on HepG2 cells is 31.2 ± 2.11 µM. Moreover, in the data set on AML12 hepatocytes, the concentration for half-maximal inhibition (IC50) was greater than 100 µM and the “Selectivity index (S.I.)” value is reported as greater than 3.21. In the data set on MDA-MB-231-BCRP cells, the IC50 is greater than 100 µM. Moreover, in the data set on CEM/ADR5000 cells, the IC50 is greater than 100 µM and the “Degree of resistance (D.R.)” value was greater than 3.13. The molecule also returned an IC50 in the data set on CCRF-CEM leukemia cells of 32 ± 2.16 µM. Moreover, in the data set with HCT116 p53−/− cells, inhibition was half-maximal at 32.2 ± 2.37 µM (IC50) and the “Degree of resistance (D.R.)” value is listed as less than 0.32. Further, in the data set on U87MG.ΔEGFR cells, the concentration for half-maximal inhibition (IC50) came to 28.3 ± 1.66 µM and the “Degree of resistance (D.R.)” value was 1.00. In the data set on MDA-MB-231-pcDNA cells, this molecule returned an IC50 greater than 100 µM. For the same molecule, the half-inhibitory concentration (IC50) in the data set on U87MG cells came to 28.3 ± 2.08 µM.
As for `O=c1ccc2nccc3c4ccccc4n1c23` [Compound 5, canthin-6-one], the IC50 with HCT116 p53+/+ cells was 24.7 ± 2.16 µM; in the data set on HepG2 cells, 26.1 ± 1.63 µM; in the data set on AML12 hepatocytes, greater than 100 µM; in the data set on MDA-MB-231-BCRP cells, greater than 100 µM; in the data set on CEM/ADR5000 cells it was greater than 100 µM; with CCRF-CEM leukemia cells it was 44.2 ± 3.52 µM. The IC50 with HCT116 p53−/− cells was 21 ± 1.72 µM; with U87MG.ΔEGFR cells, 21.1 ± 1.49 µM; in the data set with MDA-MB-231-pcDNA cells, greater than 100 µM; in the data set with U87MG cells it was 19.6 ± 1.55 µM. In addition, in the data set with AML12 hepatocytes, the “Selectivity index (S.I.)” value is listed as greater than 3.83. In addition, the “Degree of resistance (D.R.)” value with CEM/ADR5000 cells is reported as greater than 2.26; in the data set with HCT116 p53−/− cells it was 0.85; in the data set with U87MG.ΔEGFR cells, 1.08.
As for `CC(C)(O)[C@@H](O)Cc1cn([C@@H]2O[C@H](CO)[C@@H](O)[C@H](O)[C@H]2O)c2ccccc12` [Compound 7, 3-(2’,3’-dihydroxy-3’-méthylbutyl)-1N-β-glucopyranosylindole], the melting point fell in the range of 209 to 211 °C. This molecule gave an IC50 in the data set with HCT116 p53+/+ cells greater than 100 µM. Moreover, the IC50 in the data set with HepG2 cells is greater than 100 µM. This molecule also returned an IC50 with AML12 hepatocytes greater than 100 µM. Moreover, the IC50 with MDA-MB-231-BCRP cells is greater than 100 µM. Further, in the data set on CEM/ADR5000 cells, the IC50 is greater than 100 µM and the “Degree of resistance (D.R.)” value is greater than 4.91. Further, the 50% inhibitory concentration (IC50) with CCRF-CEM leukemia cells turned out to be 20.4 ± 0.94 µM. Further, the IC50 in the data set with HCT116 p53−/− cells was greater than 100 µM. This molecule displayed an IC50 in the data set with U87MG.ΔEGFR cells greater than 100 µM. In the data set with MDA-MB-231-pcDNA cells, this molecule had a 50% inhibitory concentration (IC50) greater than 100 µM. In the data set with U87MG cells, this molecule returned an IC50 greater than 100 µM.
On to `OO` [Compound H2O2, hydrogen peroxide, reference compound], for which, in the data set on CCRF-CEM cells [1], the “ROS levels in treated cells” value worked out at 94.30%.
In the case of `COc1cccc2c1C(=O)c1c(O)c3c(c(O)c1C2=O)C[C@@](O)(C(=O)CO)C[C@@H]3O[C@H]1C[C@H](N)[C@H](O)[C@H](C)O1` [Doxorubicin, reference compound], the IC50 was 4.56 ± 0.48 µg/mL in the data set on HepG2 cells (Table 2); greater than 50 µg/mL in the data set on AML12 hepatocytes (Table 2); 0.79 ± 0.08 µg/mL in the data set with MDA-MB-231-BCRP cells; 123 ± 10.9 µg/mL with CEM/ADR5000 cells (Table 2); 0.02 µM in the data set on CCRF-CEM leukemia cells; 0.02 µg/mL with CCRF-CEM leukemia cells (Table 2). In addition, the IC50 amounted to 1.78 ± 0.08 µg/mL in the data set on HCT116 p53−/− cells (Table 2), 0.98 ± 0.07 µg/mL in the data set on U87MG.ΔEGFR cells (Table 2), 0.13 ± 0.01 µg/mL in the data set with MDA-MB-231-pcDNA cells (Table 2) and 0.26 ± 0.03 µg/mL in the data set on U87MG cells (Table 2). Further, the “Degree of resistance (D.R.)” value with MDA-MB-231-BCRP cells is 6.14; in the data set with CEM/ADR5000 cells, 6,683.00; in the data set on HCT116 p53−/− cells, 3.73; in the data set on U87MG.ΔEGFR cells, 3.79.
Turning to `CC(C)[C@@H]1NC(=O)[C@H](C)OC(=O)[C@@H](C(C)C)NC(=O)[C@@H](C(C)C)OC(=O)[C@H](C(C)C)NC(=O)[C@H](C)OC(=O)[C@@H](C(C)C)NC(=O)[C@@H](C(C)C)OC(=O)[C@H](C(C)C)NC(=O)[C@H](C)OC(=O)[C@@H](C(C)C)NC(=O)[C@@H](C(C)C)OC1=O` [valinomycin, reference compound], in the data set on CCRF-CEM cells [2], the “cells with MMP disrupted” value is reported as 16.8%, the “cells with MMP loosed” value is listed as 44.5% and the “healthy cells (intact MMP)” value is 38.8%.
